# In patent US20070053994A1, “Anti-inflammatory treatment” (priority 2003, published 2007):
# Test system: severe psoriasis (person)
# Assay: Case report: treatment of severe psoriasis of hands, arms and feet
# Assay type: in vivo, human
# Conditions: effects did not last following long term treatment
structure (smiles),measurement,value
C[C@]12CCC(=O)C=C1CC[C@@H]1[C@@H]2C(=O)C[C@@]2(C)[C@H]1CC[C@]2(O)C(=O)CO [cortisone],effect of earlier treatment on psoriasis (patient history),some effects
